In patent US12404285B2, “KRAS G12D proteolysis targeting chimeras” (PAQ Therapeutics Inc., priority 2022, dated 2025) one finds DC50 data, which are given here for 15 compounds.

This assay deals with T1, KRAS (G12D)-HiBit in AsPc-1-KRAS (G12D)-HiBit-KI cell (Homo sapiens, UniProt P01116, G12D).
T1 construct: host or cells: AsPc-1-KRAS (G12D)-HiBit-KI cells (knock-in line)
T1 sequence (P01116 1-188 isoform P01116-2 G12D): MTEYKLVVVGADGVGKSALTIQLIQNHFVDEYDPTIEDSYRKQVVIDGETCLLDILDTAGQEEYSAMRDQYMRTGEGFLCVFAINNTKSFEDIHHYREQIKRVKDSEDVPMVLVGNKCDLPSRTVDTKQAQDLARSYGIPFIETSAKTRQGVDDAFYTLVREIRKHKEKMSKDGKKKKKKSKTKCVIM
Kind of assay: G12D HiBit assay. The assay is classed as cell-based. The note with it: 24 hours compound treatment, absolute DC50, read-out: Average PHA DC50. Summed up:
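Degradation of endogenous HiBiT-tagged KRAS G12D in AsPc-1 knock-in cells read after 24 h compound exposure (0.015-300 nM, 3-fold steps) by Nano-Glo HiBiT lytic luminescence. Signal normalised to DMSO-only cells; absolute DC50 derived by curve fitting.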
`C#Cc1c(F)ccc2cccc(-c3ncc4c(N5CC6CCC(C5)N6)nc(OC[C@@]56CCCN5[C@H](COC(=O)N5CCC(COC7CN(c8ccc9c(c8)n(C)c(=O)n9C8CCC(=O)NC8=O)C7)CC5)CC6)nc4c3F)c12` (stereo partly drawn) [Compound 102, [(3S,8S)-8-[[4-(3,8-Diazabicyclo[3.2.1]octan-3-yl)-7-(8-ethynyl-7-fluoro-1-naphthyl)-8-fluoro-pyrido[4,3-d]pyrimidin-2-yl]oxymethyl]-1,2,3,5,6,7-hexahydropyrrolizin-3-yl]methyl4-[[1-[1-(2,6-dioxo-3-piperidyl)-3-methyl-2-oxo-benzimidazol-5-yl]azetidin-3-yl]oxymethyl]piperidine-1-carboxylate]: the DC50 was under 100 nM.

For `C#Cc1c(F)ccc2cccc(-c3ncc4c(N5CC6CCC(C5)N6)nc(OC[C@@]56CCCN5[C@H](COC(=O)N5CCO[C@@H](CN7CCN(c8cccc9c8n(C)c(=O)n9C8CCC(=O)NC8=O)CC7)C5)CC6)nc4c3F)c12` (stereo partly drawn) [Compound 111, [(3S,8S)-8-[[4-(3,8-Diazabicyclo[3.2.1]octan-3-yl)-7-(8-ethynyl-7-fluoro-1-naphthyl)-8-fluoro-pyrido[4,3-d]pyrimidin-2-yl]oxymethyl]-1,2,3,5,6,7-hexahydropyrrolizin-3-yl]methyl (2S)-2-[[4-[1-(2,6-dioxo-3-piperidyl)-3-methyl-2-oxo-benzimidazol-4-yl]piperazin-1-yl]methyl]morpholine-4-carboxylate-2,6-dione], the DC50 was under 100 nM.

For the compound `C#Cc1c(F)ccc2cccc(-c3ncc4c(N5CC6CCC(C5)N6)nc(OC[C@@]56CCCN5[C@H](COC(=O)NCCCCCCC(=O)N5CCN(c7ccc(N8CCC(=O)NC8=O)cc7)CC5)CC6)nc4c3F)c12` [Compound 149, [(3S,8S)-8-[[4-(3,8-Diazabicyclo[3.2.1]octan-3-yl)-7-(8-ethynyl-7-fluoro-1-naphthyl)-8-fluoro-pyrido[4,3-d]pyrimidin-2-yl]oxymethyl]-1,2,3,5,6,7-hexahydropyrrolizin-3-yl]methyl N-[7-[4-[4-(2,4-dioxohexahydropyrimidin-1-yl)phenyl]piperazin-1-yl]-7-oxo-heptyl]carbamate], the DC50 was at least 300 nM.

As for `C#Cc1c(F)ccc2cccc(-c3ncc4c(N5C[C@H]6CC[C@@H](C5)N6)nc(OC[C@@]56CCCN5[C@H](COC(=O)N5CCC(CC7CCN(c8ccc9c(c8)n(C)c(=O)n9C8CCC(=O)NC8=O)CC7)CC5)CC6)nc4c3F)c12` (stereo partly drawn) [Compound 90, ((3S,7aS)-7a-(((4-((1R,5S)-3,8-Diazabicyclo[3.2.1]octan-3-yl)-7-(8-ethynyl-7-fluoronaphthalen-1-yl)-8-fluoropyrido[4,3-d]pyrimidin-2-yl)oxy)methyl)hexahydro-1H-pyrrolizin-3-yl)methyl4-((1-(1-(2,6-dioxopiperidin-3-yl)-3-methyl-2-oxo-2,3-dihydro-1H-benzo[d]imidazol-5-yl)piperidin-4-yl)methyl)piperidine-1-carboxylate], the DC50 was under 100 nM.

Regarding `C#Cc1c(F)ccc2cccc(-c3ncc4c(N5CC6CCC(C5)N6)nc(OC[C@@]56CCCN5[C@H](COC(=O)NCCCC(=O)N5CCC(c7cccc8c7n(C)c(=O)n8C7CCC(=O)NC7=O)CC5)CC6)nc4c3F)c12` (stereo partly drawn) [Compound 39, [(3S,8S)-8-[[4-(3,8-Diazabicyclo[3.2.1]octan-3-yl)-7-(8-ethynyl-7-fluoro-1-naphthyl)-8-fluoro-pyrido[4,3-d]pyrimidin-2-yl]oxymethyl]-1,2,3,5,6,7-hexahydropyrrolizin-3-yl]methyl N-[4-[4-[1-(2,6-dioxo-3-piperidyl)-3-methyl-2-oxo-benzimidazol-4-yl]-1-piperidyl]-4-oxo-butyl]carbamate], the DC50 was at least 300 nM.

Turning to `C#Cc1c(F)ccc2cccc(-c3ncc4c(N5CC6CCC(C5)N6)nc(OC[C@@]56CCCN5[C@H](COC(=O)N5CC(CN7CCN(c8cccc9c8n(C)c(=O)n9C8CCC(=O)NC8=O)CC7)C5)CC6)nc4c3F)c12` (stereo partly drawn) [Compound 113, [(3S,8S)-8-[[4-(3,8-Diazabicyclo[3.2.1]octan-3-yl)-7-(8-ethynyl-7-fluoro-1-naphthyl)-8-fluoro-pyrido[4,3-d]pyrimidin-2-yl]oxymethyl]-1,2,3,5,6,7-hexahydropyrrolizin-3-yl]methyl 3-[[4-[1-(2,6-dioxo-3-piperidyl)-3-methyl-2-oxo-benzimidazol-4-yl]piperazin-1-yl]methyl]azetidine-1-carboxylate], the DC50 lay in the range of 100 to 300 nM.

For `C#Cc1c(F)ccc2cccc(-c3ncc4c(N5CC6CCC(C5)N6)nc(OC[C@@]56CCCN5[C@H](COC(=O)N5CCC(OC7CN(Cc8cccc9c8n(C)c(=O)n9C8CCC(=O)NC8=O)C7)CC5)CC6)nc4c3F)c12` (stereo partly drawn) [Compound 54, [(3S,8S)-8-[[4-(3,8-Diazabicyclo[3.2.1]octan-3-yl)-7-(8-ethynyl-7-fluoro-1-naphthyl)-8-fluoro-pyrido[4,3-d]pyrimidin-2-yl]oxymethyl]-1,2,3,5,6,7-hexahydropyrrolizin-3-yl]methyl 4-[1-[[1-(2,6-dioxo-3-piperidyl)-3-methyl-2-oxo-benzimidazol-4-yl]methyl]azetidin-3-yl]oxypiperidine-1-carboxylate], the DC50 was under 100 nM.

As for `C#Cc1c(F)ccc2cccc(-c3ncc4c(N5CC6CCC(C5)N6)nc(OC[C@@]56CCCN5[C@H](COC(=O)N5CCC(C7CCN(Cc8cccc9c8n(C)c(=O)n9C8CCC(=O)NC8=O)CC7)CC5)CC6)nc4c3F)c12` (stereo partly drawn) [Compound 51], the DC50 was under 100 nM.

`C#Cc1c(F)ccc2cccc(-c3ncc4c(N5CC6CCC(C5)N6)nc(OC[C@@]56CCCN5[C@H](COC(=O)N5CCC(CN7CCN(c8cccc9c8n(C)c(=O)n9C8CCC(=O)NC8=O)CC7)CC5)CC6)nc4c3F)c12` (stereo partly drawn) [Compound 112, [(3S,8S)-8-[[4-(3,8-Diazabicyclo[3.2.1]octan-3-yl)-7-(8-ethynyl-7-fluoro-1-naphthyl)-8-fluoro-pyrido[4,3-d]pyrimidin-2-yl]oxymethyl]-1,2,3,5,6,7-hexahydropyrrolizin-3-yl]methyl 4-[[4-[1-(2,6-dioxo-3-piperidyl)-3-methyl-2-oxo-benzimidazol-4-yl]piperazin-1-yl]methyl]piperidine-1-carboxylate]: the DC50 was under 100 nM.

`C#Cc1c(F)ccc2cccc(-c3ncc4c(N5CC6CCC(C5)N6)nc(OC[C@@]56CCCN5[C@H](COC(=O)N5CCC(CCN7CCN(Cc8cccc9c8n(C)c(=O)n9C8CCC(=O)NC8=O)CC7)CC5)CC6)nc4c3F)c12` (stereo partly drawn) [Compound 84, [(3S,8S)-8-[[4-(3,8-Diazabicyclo[3.2.1]octan-3-yl)-7-(8-ethynyl-7-fluoro-1-naphthyl)-8-fluoro-pyrido[4,3-d]pyrimidin-2-yl]oxymethyl]-1,2,3,5,6,7-hexahydropyrrolizin-3-yl]methyl4-[2-[4-[[1-(2,6-dioxo-3-piperidyl)-3-methyl-2-oxo-benzimidazol-4-yl]methyl]piperazin-1-yl]ethyl]piperidine-1-carboxylate]: the DC50 was under 100 nM.

On to `C#Cc1c(F)ccc2cccc(-c3ncc4c(N5CC6CCC(C5)N6)nc(OC[C@@]56CCCN5[C@H](COC(=O)N5CCC(COC7CCN(Cc8ccc9c(c8)n(C)c(=O)n9C8CCC(=O)NC8=O)CC7)CC5)CC6)nc4c3F)c12` (stereo partly drawn) [Compound 68], for which the DC50 is under 100 nM.

On to `C#Cc1c(F)ccc2cccc(-c3ncc4c(N5CC6CCC(C5)N6)nc(OC[C@@]56CCCN5[C@H](COC(=O)N5CC(OC7CCN(Cc8cccc9c8n(C)c(=O)n9C8CCC(=O)NC8=O)CC7)C5)CC6)nc4c3F)c12` (stereo partly drawn) [Compound 83, [(3S,8S)-8-[[4-(3,8-Diazabicyclo[3.2.1]octan-3-yl)-7-(8-ethynyl-7-fluoro-1-naphthyl)-8-fluoro-pyrido[4,3-d]pyrimidin-2-yl]oxymethyl]-1,2,3,5,6,7-hexahydropyrrolizin-3-yl]methyl3-[[1-[[1-(2,6-dioxo-3-piperidyl)-3-methyl2-oxo-benzimidazol-4-yl]methyl]-4-piperidyl]oxy]azetidine-1-carboxylate], for which the DC50 is under 100 nM.

Consider `C#Cc1c(F)ccc2cccc(-c3ncc4c(N5CC6CCC(C5)N6)nc(OC[C@@]56CCCN5[C@H](COC(=O)N5CCN(CCC7CCN(Cc8cccc9c8n(C)c(=O)n9C8CCC(=O)NC8=O)CC7)CC5)CC6)nc4c3F)c12` (stereo partly drawn) [Compound 85, [(3S,8S)-8-[[4-(3,8-Diazabicyclo[3.2.1]octan-3-yl)-7-(8-ethynyl-7-fluoro-1-naphthyl)-8-fluoro-pyrido[4,3-d]pyrimidin-2-yl]oxymethyl]-1,2,3,5,6,7-hexahydropyrrolizin-3-yl]methyl4-[2-[1-[[1-(2,6-dioxo-3-piperidyl)-3-methyl-2-oxo-benzimidazol-4-yl]methyl]-4-piperidyl]ethyl]piperazine-1-carboxylate], for which the DC50 was under 100 nM.

With `C#Cc1c(F)ccc2cccc(-c3ncc4c(N5CC6CCC(C5)N6)nc(OC[C@@]56CCCN5[C@H](COC(=O)NCCCCCC(=O)N5CCN(c7ccc(N8CCC(=O)NC8=O)cc7)CC5)CC6)nc4c3F)c12` [Compound 148, ((3S,7aS)-7a-(((4-(3,8-Diazabicyclo[3.2.1]octan-3-yl)-7-(8-ethynyl-7-fluoronaphthalen-1-yl)-8-fluoropyrido[4,3-d]pyrimidin-2-yl)oxy)methyl)hexahydro-1H-pyrrolizin-3-yl)methyl(6-(4-(4-(2,4-dioxotetrahydropyrimidin-1(2H)-yl)phenyl)piperazin-1-yl)-6-oxohexyl)carbamate], the DC50 is at least 300 nM.

Turning to `C#Cc1c(F)ccc2cccc(-c3ncc4c(N5CC6CCC(C5)N6)nc(OC[C@@]56CCCN5[C@H](COC(=O)NCCCC(=O)N5CCN(c7ccc(N8CCC(=O)NC8=O)cc7)CC5)CC6)nc4c3F)c12` [Compound 146, [(3S,8S)-8-[[4-(3,8-diazabicyclo[3.2.1]octan-3-yl)-7-(8-ethynyl-7-fluoro-1-naphthyl)-8-fluoro-pyrido[4,3-d]pyrimidin-2-yl]oxymethyl]-1,2,3,5,6,7-hexahydropyrrolizin-3-yl]methylN-[4-[4-[4-(2,4-dioxohexahydropyrimidin-1-yl)phenyl]piperazin-1-yl]-4-oxo-butyl]carbamate], the DC50 was at least 300 nM.
